Measured values as given in patent publication US5962415A, “Compositions comprising a peptide inhibitor of nuclear protein translocation and an immunosuppressant and methods of use thereof” (Bristol-Myers Squibb Co., priority 1998, dated 1999).

Tests used:
[1] = system: HIVLAI in Jurkat cells; experiment: Nuclear translocation of HIV genome in Jurkat cells infected with HIVLAI (gag and 2-LTR circle PCR); type: cell-based, HIV-1; details: SV40MEM 0.1 and 1.0 μM; NF-κBMEM 10 μM; 24 hr, FIG. 8B
Experimental: HIV-1 M1 p24 levels were assayed using the procedures described in Smithgall et al (1995) AIDS Res. and Human Retrovirus 11:885. Proviral DNA content (gag) was measured using polymerase chain reaction analysis as described in Smithgall et al. (1995), supra.
2-LTR circles, a strictly nuclear form of HIV-1 DNA the expression of which indicates nuclear localization of the viral genome, was measured by as described in Bukrinsky et al (1991) Science 254:423.
Jurkat cells were incubated with the SV40MEM polypeptide for 3 hr with HIVLAI for 1-2 hr. The virus was washed out and the cultures supplemented with the appropriate inhibitor (SV40MEM, 0.1,μM and 1.0 μM; NF-κBMEM, 10 μM). After 24 hr, the cells were collected, lysed and evaluated for HIV-1 DNA by polymerase chain reaction analysis of gag sequences (see FIG. 8A) and 2-LTR circles (see FIG. 8B).

[2] = system: BALB/c mice immunized with sheep red blood cells; experiment: Murine sheep red blood cell assay (anti-SRBC antibody response); type: in vivo
Experimental: Female BALB/c mice (6-8 weeks of age) were housed in groups of 5 in Thorne units with ad libitum access to food and water. Mice were immunized on day 0 by intravenous (IV) injection of 1×10^8 sheep red blood cells ("SRBCs"). The mice were then divided into groups of five and control solutions or inhibitory peptides were administered at various doses, either by IV injection or orally ("PO") by gavage with a 24-gauge feeding tube and routes.
The SV40MEM polypeptide was administered either intravenously (IV) or orally (PO) with the following schedule: IV administration of 5 mg/kg on days 0, 1, 2, and 3; PO administration of 1 mg/kg on days 0, 1, 2, 3, and 4. After 14 days, the mice were bled from the orbital sinus and the level of anti-SRBC antibodies were measured in the serum by ELISA. Briefly, Immulon 2 plates (Dynatech) were coated with SRBC membrane antigen (Anal. Biochem. 82:362-371 (1978)) at 5 μg/ml in 0.05 M carbonate/bicarbonate buffer (pH 9.6) and incubated overnight at 2-8° C. Plates were blocked for 1-hr at room temperature with Specimen Diluent Concentrate (Genetic Systems, Redmond, Wash.) diluted 1:10 with distilled water. The plates were washed in phosphate-buffered saline and 0.05% Tween-20 ("PBS/Tween"). Serum samples were diluted in Specimen Diluent and incubated for 1 hr at room temperature. After washing the plates in PBS/Tween, goat anti-mouse IgG1-horse radish peroxidase-conjugated ("IgG1-HRP") antibody (Southern Biotechnology, Birmingham Ala.) was added at 1:5000 dilution and incubated for 1 hr at room temperature. Plates were washed and conjugate binding was detected using 3,3',5,5'-tetramethylbenzidine ("TMB") (Genetic Systems) as the substrate. TMB was added and incubated for 15 min at room temperature. The reaction was stopped by the addition of 3 N H2 SO4. Absorbance at […] was recorded from duplicate samples using a microtiter plate reader (Bio Tek Instruments).

[3] = system: Jurkat T-cells; experiment: Apoptosis in anti-CD3-treated Jurkat T-cells; type: cell-based, human
Experimental: A 24-hr incubation of Jurkat T-cells with SV40MEM and anti-CD3, caused greater than 85% of the cells to apoptose.

[4] = system: 70Z/3 murine leukemia pre-B cells; experiment: LPS-stimulated surface antigen expression (κ Ig light chain, IL-2 receptor, CD45) in 70Z/3 cells; type: cell-based
Experimental: (§1) Expression of κ Ig, CD45, CD40, and the interleukin-2 receptor was assayed using standard enzyme-linked immunosorbent assays ("ELISAs") (see, Coligan et al. (eds.) (1991) Current Protocols in Immunology, Wiley & Sons, p. 2.10 or by FACS staining to measure cell-surface markers as described in Raff (1970) Immunology 19:637). Antibodies form cell surface markers were obtained from Pharmingen Co.
The effect of the SV40MEM polypeptide was compared with two additional polypeptides, […] (SEQ ID NO:2) (the "HIV-1MEM" polypeptide), which is composed of the membrane translocation domain of FGF flanked by the NLS from the HIV-1 matrix protein and […] (SEQ ID NO:3) (the "C-MYCMEM" polypeptide), which contains the NLS from the human c-myc oncoprotein (Chelsky et al. (1989), supra, and Dang et al. (1988), supra) using murine 70Z/3 pre-B cells.
Murine 70Z/3 cells (ATCC TlD-158) are a model cell line for analyzing the effects of compounds on B-cell differentiation. In response to S. typhosa LPS (Difco) or γ-interferon, these cells differentiate from surface κ immunoglobulin negative to κ Ig positive.
[…] of: (1) a peptide containing only the FGF signal sequence AAVALLPAVLLALLAP (SEQ ID NO:4) (the "MEM" peptide); (2) a polypeptide having the FGF signal sequence and the NLS of NF-κB p50 on the carboxy terminus of the signal sequence, namely, the NF-κBMEM polypeptide; (3) the SV40MEM polypeptide comprised of L-amino acids; or (4) the SV40MEM polypeptide comprised of D-amino acids. The cells were then incubated with LPS as described in Example 2 and assayed for expression of κ light chain expression.

[5] = system: IκB; experiment: IκB degradation in LPS-activated 70Z/3 cells (Western analysis); type: cell-based, murine; details: 2 μM, LPS 100 ng/ml for 0-120 min
Experimental: IκB is an inhibitor of NF-κB nuclear translocation. When cells are activated by the appropriate proinflammatory stimulus, e.g., cytokines or LPS, IκB is degraded. […] This experiment was done to explore the effect of the SV40MEM polypeptide on IKB degradation in murine 70Z/3 cells.
Murine 70Z/3 cells (5×10^7 cells) were incubated with the SV40MEM polypeptide (2 μM) or PBS. The two groups of cells were subdivided into aliquots and activated with LPS (100 ng/ml) for 0, 15, 30, 60, or 120 min. The cells were lysed in 200 μL lysing buffer (20 mM N-(2-hydroxyethyl)piperazine-N'-(2-ethanesulfonic acid) ("HEPES"), pH 7.2, 20 mM NaCl, 2.5 mM MgCI2, 0.1% nonylphenoxy polyethoxy ethanol ("NP-40")). The lysates were frozen until analyzed for the presence of IκB by Western analysis using an antibody directed to the carboxy terminus of IκB (Santa Cruz Corp., Santa Cruz, Calif.) according to the manufacturer's instructions.

[6] = system: 70Z/3 murine B-cells; experiment: LPS-induced CD40 expression in 70Z/3 cells; type: cell-based; details: 3 hr treatment prior to LPS, FIG. 5
Experimental: as §1
70Z/3 murine B-cells were treated with the SV40MEM polypeptide for 3 hr prior to activation with LPS. After activation with LPS, there was an approximately four-fold increase in CD40 expression above basal levels.

[7] = IV 5 mg/kg days 0-3, serum day 14, FIG. 11A
[8] = PO 1 mg/kg days 0-4, serum day 14, FIG. 11B

## PKKKRKVAAVALLPAVLLALLAPKKKRKVC [SV40MEM, FGF signal peptide hydrophobic region flanked by SV40 large T antigen NLS]
[1]
  translocation of the viral genome into the nucleus (2-LTR circles): inhibited translocation of the viral genome into the nucleus
[2]; [7]
  specific anti-SRBC response: inhibited
  total IgG levels: no effect
[2]; [8]
  specific anti-SRBC response: inhibited
  total IgG levels: no effect
[3]; 24-hr incubation with SV40MEM and anti-CD3
  cells undergoing apoptosis: greater than 85%
[3]; SV40MEM alone, without anti-CD3
  apoptosis: Neither SV40MEM nor anti-CD3 alone caused significant apoptosis
[4]; LPS-stimulated, FIG. 1A
  expression of CD45: no effect
  expression of the interleukin-2 receptor: no effect
[4]; response to S. typhosa LPS, 1-hr pretreatment, FIG. 1A
  inhibition of κ light chain expression: 75-80%
[4]; κ Ig light chain production, FIG. 1C
  effect of increasing LPS concentration on the inhibitory effect: can be overcome by increasing the concentration of LPS
[5]
  degradation of IκB: no apparent degradation of IκB
[6]
  LPS-induced up-regulation of CD40: inhibited this up-regulation of CD40
